A short description of data set [1]: DOSY translational diffusion NMR. As to conditions: 120 μM peptide, 283 K. In kind it is physicochemical. The method, then: The peptide concentration in DOSY experiment was 120 μM, and 128 scans were acquired, where the gradient strength was varied linearly. Translational self-diffusion measurements were performed with the pulsed-gradient spin-echo sequence in the presence of 100% D2O. Experimental details have been described elsewhere. The gradient strength was varied in sixteen linear steps between 2 and 95% of the total power of the gradient coil. The gradient strength was calibrated using the value of the translational diffusion coefficient, D, for the residual proton water signal in a sample containing 100% D2O in a 5 mm tube [53]. The length of the gradient was 2.25 ms, the time between the two pulse gradients in the pulse sequence was 200 ms, and the recovery delay between the bipolar gradients was 100 μs. The methyl groups with signals between 1.0 and 0.80 ppm were used for peak integration (Section 2.2.1). Fitting of the exponential curves, obtained from experimental data as previously described, was carried out with KaleidaGraph version 3.5 (Synergy Software, Reading, PA, USA). A final concentration of 1% of dioxane, which was assumed to have a hydrodynamic radius Rh = 2.12 Å [53], was added to the peptide solution.

In another data set the test system is Impα3. As to conditions: 35 μM peptide, pH 7.2, 50 mM deuterated Tris, 1-1 echo sequence. The protocol: The NMR experiments were acquired at 283 K on a Bruker Avance spectrometer (Bruker GmbH, Karlsruhe, Germany), equipped with a triple resonance probe and z-pulse field gradients. All experiments with NLS-NUPR1L were carried out at pH 7.2, 50 mM deuterated Tris buffer (not corrected for isotope effects). The spectra were calibrated with TSP ((trimethylsilyl)-2,2,3,3-tetradeuteropropionic acid), by considering pH-dependent changes of its chemical-shifts; probe temperature was calibrated with methanol.
Measurements of the T2 (transverse relaxation time) provide a convenient method to determine the molecular mass of a macromolecule, as the correlation time, τc, is approximately equal to 1/(5 × T2). We measured the T2 of one of the indole protons (Section 2.2.1) for NLS-NUPR1L (at 35 μM concentration) in isolation and in the presence of Impα3 (at a final concentration of 7 μM) with the 1-1 echo sequence. The calculation of the T2 was carried out as described.

Data set [2] in a line: Aggregation / self-association tendency. In kind it is physicochemical. The following applies: isolated peptide, refers to Section 2.2.1.
A short description of data set [3]: Conformation of isolated peptide by fluorescence, far-UV CD and NMR. It counts as physicochemical. The protocol:
Appropriate blank corrections were made in all spectra.
All spectra were corrected by subtracting the corresponding baseline.
An amount of 128 scans was acquired with 16 K acquisition points for the homonuclear 1D-^1H-NMR spectrum, and using a peptide concentration of 1.0–1.2 mM. Water signal was suppressed using the WATERGATE sequence. The spectrum was processed with Bruker TopSpin 2.1 (Bruker GmbH, Karlsruhe, Germany), after zero-filling and apodization with an exponential window.
Two-dimensional spectra were acquired in each dimension in the phase-sensitive mode using the time-proportional-phase incrementation technique (TPPI) and a spectral width of 7801.69 Hz; the final concentration of the NLS-NUPR1L was the same as that used in the 1D experiments. Standard TOCSY (Total correlation spectroscopy) (with a mixing time of 80 ms) and NOESY experiments (with a mixing time of 250 ms) were performed by acquiring a data matrix size of 4096 × 512 points. The DIPSI (decoupling in the presence of scalar interactions) spin-lock sequence was used in the TOCSY experiments with 1 s of relaxation time. Typically, 96 scans were acquired per increment in the first dimension, and the residual water signal was removed using the WATERGATE sequence. NOESY spectra were collected typically with 96 scans per increment in the first dimension, with the residual water signal removed again by the WATERGATE sequence, and with 1 s of relaxation time. Data were zero-filled, resolution-enhanced with a square sine-bell window function optimized in each spectrum, baseline-corrected, and processed with the Bruker TopSpin 2.1 software (Bruker GmbH, Karlsruhe, Germany). The ^1H resonances were assigned by standard sequential assignment processes. The chemical shift values of Hα protons in random-coil regions were obtained from tabulated data, corrected by neighbouring residue effects.

Entries after “also recorded” stand apart in the source; their conditions may differ.

Regarding “Ac-RTRREQALRTNWPAPGGHERKVAQ-NH2 [NLS-NUPR1L]”, the “translational diffusion coefficient D” value in data set [1] (100% D2O, pH 7.2, 50 mM Tris) was 1.74 ± 0.05 × 10^−6 cm^2 s^−1. The association state entry in data set [1] is given as “monomeric”. The “hydrodynamic radius Rh” value in data set [1] (estimated by comparison with dioxane (1%)) was 12 ± 2 Å. In addition, in the data set on Impα3 (7 μM Impα3, 283 K), the “T2 of most up-field indole signal, in the presence of Impα3” value amounted to 36.7 ms. For the same substance, the “T2 of most up-field indole signal, isolated peptide” value in the data set on Impα3 (283 K) came out at 62.2 ms. In addition, the tendency to aggregate entry in data set [2] is “did not have any tendency to aggregate”. Further, in data set [3] (298 K, 50 mM phosphate pH 7.0), the “far-UV CD minimum” value was ~ 203 nm. In addition, the fluorescence emission maximum in data set [3] (excitation 280 nm, 50 mM phosphate pH 7.0, 298 K) was found to be 353 nm. Besides, the “conformation in aqueous solution” value in data set [3] (fluorescence, far-UV CD and NMR) is on record as “random-coil conformation; also recorded: disordered in aqueous solution; also recorded: did not have any propensity to acquire helix- or turn-like conformations”.

These data come from article PMC7583046, “The Paralogue of the Intrinsically Disordered Nuclear Protein 1 Has a Nuclear Localization Sequence that Binds to Human Importin α3” (International Journal of Molecular Sciences, 2020).
